Source: patent US20250099474A1 (priority 2022, published 2025)

Tests used:
[1] = Phase I clinical study Part 1, single administration, pharmacokinetics and safety; format: in vivo, human; details: phase 1 study
Experimental: Test Example 3-1 Phase I Clinical Study
All studies were conducted based on Good Clinical Practice (GCP). The phase I clinical study was composed of Part 1 to Part 7, and in Part 1, the safety, tolerability, and pharmacokinetics were confirmed when the fumaric acid cocrystal Form I crystal of the compound represented by Formula (I) was administered once and when it was administered repeatedly.
The subjects who were determined to be eligible by the screening examination were randomly assigned to either the active drug group (see the following table for the dose of the fumaric acid cocrystal Form I crystal of the compound represented by Formula (I)) or the placebo group on the day before the day of administration of the investigational new drug (Day −1). On Day 1, the investigational new drug (active drug or placebo) was administered once in the fasted state.

[2] = Phase 2/3 study: frequency of adverse events; format: in vivo, human; details: for Adverse events leading to discontinuation of administration, causally related to the investigational new drug: recovering or recovered after discontinuation
SARS-CoV-2 [3] = details: mouse, in vivo
SARS-CoV-2 [4] = assay: Phase 2/3 study, Phase 2a Part: COVID-19 symptom score and exacerbation (Ordinal scale); format: in vivo, human; details: mild/moderate patients
Experimental: The 750/250 mg group received 750 mg on Day 1 as a loading dose and 250 mg on Days 2 to 5 as a maintenance dose.

[5] = monkey, in vivo
SARS-CoV-2 [6] = assay: Phase 2/3 study, Phase 2a Part: SARS-CoV-2 virus titer; format: in vivo, human; details: for Change from baseline in SARS-CoV-2 virus titer compared to placebo group: mITT, significance level 0.05
Experimental: The primary endpoint of Phase 2a Part was the change from baseline in SARS-CoV-2 virus titer at each time point in common among mild/moderate and asymptomatic SARS-CoV-2-infected patients, and the antiviral effect of the active drug was confirmed.
The administration of the active drug is repeated oral administration once a day for 5 days. The 375/125 mg group received 375 mg on Day 1 as a loading dose and 125 mg on Days 2 to 5 as a maintenance dose. The 750/250 mg group received 750 mg on Day 1 as a loading dose and 250 mg on Days 2 to 5 as a maintenance dose.
The primary efficacy endpoint of Phase 2a Part was the change from baseline in SARS-CoV-2 virus titer at each time point in common among mild/moderate and asymptomatic SARS-CoV-2-infected patients. It was defined as an absolute change from baseline in observed value of SARS-CoV-2 virus titer at each time point.
For each population of the mild/moderate SARS-CoV-2-infected patients, the asymptomatic SARS-CoV-2-infected patients, and the merged population thereof, summary statistics of the change from baseline in SARS-CoV-2 virus titer at each time point were calculated for the mITT population. Furthermore, a van Elteren test was applied to a combined population of mild/moderate and asymptomatic SARS-CoV-2-infected patients. Pairwise comparisons were made between each active drug dose group and the placebo group for SARS-CoV-2 virus titer at each time point at a two-sided significance level of 5%. The population of the mild/moderate SARS-CoV-2-infected patients and the population of the asymptomatic SARS-CoV-2-infected patients were used as strata in the van Elteren test.
In addition, when the virus titer was less than the lower detection limit (0.8 log10 (TCID50/mL)), the value of the virus titer was handled as 0.8 log10 (TCID50/mL). […] In the RT-PCR measurement results and the virus titer measurement results that were available by the time point of Jan.

With `Cn1cnc(Cn2c(=O)[nH]/c(=N\c3cc4cn(C)nc4cc3Cl)n(Cc3cc(F)c(F)cc3F)c2=O)n1` [(6E)-6-[(6-chloro-2-methyl-2H-indazol-5-yl)imino]-3-[(1-methyl-1H-1,2,4-triazol-3-yl)methyl]-1-[(2,4,5-trifluorophenyl)methyl]-1,3,5-triazinane-2,4-dione] the serious adverse events [1] was “no serious adverse events for which a causal relationship cannot be denied were reported”, the “Adverse events leading to deaths” value ([2]; Phase 2a Part) was “no adverse events leading to deaths” and the “Deaths, serious adverse events, adverse events leading to discontinuation of administration” value ([2]; Phase 2a Part) was “no deaths, serious adverse events, or adverse events leading to discontinuation of administration”. For the same compound, the “Adverse events leading to the discontinuation of administration” value ([2]; Phase 2a Part, 375/125 mg group, both causally related to the investigational new drug) was “Two adverse events leading to the discontinuation of administration were observed”, the serious adverse events ([2]; Phase 2a Part, active drug group) was “not in the active drug group” and the “Adverse events leading to deaths” value ([2]; Phase 3 Part) was “no adverse events leading to deaths”. The Serious adverse event ([2]; Phase 3 Part, 375/125 mg group, no causal relationship with the investigational new drug) was “observed in one case”, the “Adverse events leading to discontinuation of administration, causally related to the investigational new drug” value ([2]; Phase 3 Part, 375/125 mg group) was “eczema and emesis” and the “Adverse events leading to discontinuation of administration, causally related to the investigational new drug” value ([2]; Phase 3 Part, 750/250 mg group) was “rash (2 cases)”. The “maximum plasma concentration (Cmax) in humans that reduces the virus titer by 2 log” value (SARS-CoV-2 [3]) was 14.1 μg/mL, the “maximum plasma concentration (Cmax) in humans that reduces the virus titer by 3 log” value (SARS-CoV-2 [3]) was 23.0 μg/mL and the “Exacerbation rate (Ordinal scale deteriorated to 3 or more for the first time)” value (SARS-CoV-2 [4]; 375/125 mg group) was 0.0%. The “Number of exacerbations/number of cases to be analyzed” value (SARS-CoV-2 [4]; 375/125 mg group) was 0/13, the “Change from baseline in total score of 12 COVID-19 symptoms compared to placebo group” value (SARS-CoV-2 [4]; 375/125 mg group and 750/250 mg group, all time points on Day 2 and thereafter, FIG. 6) was “tendency for the total score of the twelve COVID-19 symptoms to numerically improve” and the “Exacerbation rate (Ordinal scale deteriorated to 3 or more for the first time)” value (SARS-CoV-2 [4]; 750/250 mg group) was 0.0%. For the same compound, the “Number of exacerbations/number of cases to be analyzed” value (SARS-CoV-2 [4]; 750/250 mg group) was 0/12, the “NOAEL (plasma concentration)” value [5] was 75.2 to 77.6 µg/mL and the “Decrease of proportion of patients with a positive virus titer of 0.8 or more, with respect to placebo group” value (shortened to “Decrease of proportion of patients”) (SARS-CoV-2 [6]; Day 4, 375/125 mg group) was 63%. The “Decrease of proportion of patients” value (SARS-CoV-2 [6]; Day 4, 750/250 mg group) was 80%, the “Decrease of proportion of patients” value (SARS-CoV-2 [6]; Day 6, 375/125 mg group) was 100% and the “Decrease of proportion of patients” value (SARS-CoV-2 [6]; Day 6, 750/250 mg group) was 54%. For the same compound, the “Change from baseline in SARS-CoV-2 virus titer compared to placebo group” value (SARS-CoV-2 [6]; 375/125 mg group, Visit 3 (Day 4)) was “statistically significantly decreased”, the “Change from baseline in SARS-CoV-2 virus titer compared to placebo group” value (SARS-CoV-2 [6]; 750/250 mg group, Visit 2 (Day 2) and Visit 3 (Day 4)) was “statistically significantly decreased” and the “SARS-CoV-2 virus titer compared to placebo group” value (SARS-CoV-2 [6]; results available by Jan. 17, 2022, 375/125 mg group, all time points after Visit 3 (Day 4)) was “tendency for the virus titer to decrease”. For the same compound, the “SARS-CoV-2 virus titer compared to placebo group” value (SARS-CoV-2 [6]; results available by Jan. 17, 2022, 750/250 mg group, all time points after Visit 2 (Day 2)) was “tendency for the virus titer to decrease”.
